From patent US20240116985A1, “STAPLED PEPTIDES AND METHODS THEREOF” (priority 2020, published 2024)
Read-outs that look alike come from different tables or passages of the source.

Assays:
[1] = target: T1, full-length beta-Catenin (Uniprot ID P35222) (Homo sapiens, UniProt P35222); test: Fluorescence polarization IC50 (beta-catenin / 5FAM-TCF4 10-53 competition); assay type: binding; conditions: fluorescence polarization; read-out: beta-Catenin FP IC50
T1 construct: 10 nM full-length beta-Catenin (Uniprot ID P35222)
T1 sequence (P35222 1-781): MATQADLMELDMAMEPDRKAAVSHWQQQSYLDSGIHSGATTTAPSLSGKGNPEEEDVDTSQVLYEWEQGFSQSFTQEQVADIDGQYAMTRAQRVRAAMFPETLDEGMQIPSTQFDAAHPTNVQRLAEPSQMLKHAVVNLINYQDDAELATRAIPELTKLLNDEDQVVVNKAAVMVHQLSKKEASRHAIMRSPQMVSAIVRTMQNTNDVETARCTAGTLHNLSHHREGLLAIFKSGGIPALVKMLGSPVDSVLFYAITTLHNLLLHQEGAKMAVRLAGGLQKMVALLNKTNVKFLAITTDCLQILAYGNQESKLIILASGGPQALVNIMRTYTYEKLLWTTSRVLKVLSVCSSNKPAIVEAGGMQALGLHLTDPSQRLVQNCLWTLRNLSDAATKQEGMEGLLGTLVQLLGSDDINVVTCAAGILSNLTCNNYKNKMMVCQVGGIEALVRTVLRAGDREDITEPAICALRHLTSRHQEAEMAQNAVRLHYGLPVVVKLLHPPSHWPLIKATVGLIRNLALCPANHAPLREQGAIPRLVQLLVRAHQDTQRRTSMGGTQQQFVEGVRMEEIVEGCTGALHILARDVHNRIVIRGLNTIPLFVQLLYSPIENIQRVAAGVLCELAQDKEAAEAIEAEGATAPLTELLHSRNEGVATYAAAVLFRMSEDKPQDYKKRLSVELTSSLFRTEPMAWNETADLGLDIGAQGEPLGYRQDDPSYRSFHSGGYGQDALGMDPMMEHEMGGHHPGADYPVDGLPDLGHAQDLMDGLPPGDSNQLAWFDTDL

[2] = target: T2, beta-catenin/TCF4 engagement (Homo sapiens, UniProt P35222); test: Nano-BRET target engagement assay (B-cat-Halo & TCF4-Luc in HEK293 cells); assay type: cell-based; conditions: read-out: NanoBRET Abs IC50
T2 construct: expressed in transfected cells; host or cells: HEK293
T2 sequence (P35222 1-781): T1 sequence (P35222 1-781)

| SMILES | IC50 [1] [nM] | IC50 ([2]; absolute IC50) [nM] | IC50 [2] [nM] |
| --- | --- | --- | --- |
| CC(=O)N1CCC[C@]12CC=CCCCC1(CCCC=CCCCOC(=O)N3CC[C@@](C(=O)N[C@@H](Cc4ccsc4)C(=O)N[C@@H](Cc4csc5ccccc45)C(=O)N[C@@H](CCC(N)=O)C(N)=O)(C3)NC(=O)[C@H](CC(C)C)NC(=O)[C@H](Cc3ccccc3)NC(=O)[C@H](C)NC(=O)[C@H](C)NC(=O)[C@H](CCn3cc(-c4ccccc4C(=O)O)nn3)NC(=O)[C@H](CC(=O)O)NC1=O)NC(=O)[C@H](CC(C)(C)C)NC(=O)[C@H](CC(=O)O)NC2=O (stereo partly drawn) [I-2080, Ac-PL3-Asp-Npg-B5-Asp-[2COOHPh]TriAzDab-Ala-Ala-Phe-Leu-PyrS2-3Thi-BztA-Gln-NH2] | 45 | – | 28800 |
| CC(=O)N1CCC[C@]12CC=CCCCC1(CCCC=CCCCOC(=O)N3CC[C@@](C(=O)N[C@@H](Cc4ccsc4)C(=O)N[C@@H](Cc4csc5ccccc45)C(=O)N[C@@H](CCC(N)=O)C(N)=O)(C3)NC(=O)[C@H](CC(N)=O)NC(=O)[C@H](Cc3ccccc3)NC(=O)[C@H](C)NC(=O)C(C)(C)NC(=O)[C@H]([C@@H](C)O)NC(=O)[C@H](CC(N)=O)NC1=O)NC(=O)[C@H](CC(C)(C)C)NC(=O)[C@H](CC(=O)O)NC2=O (stereo partly drawn) [I-2338, Ac-PL3-Asp-Npg-B5-Asn-Thr-Aib-Ala-Phe-Asn-PyrS2-3Thi-BztA-Gln-NH2] | 63 | > 20000 | – |
| C#CC(=O)N1CCC[C@]12CC=CCCCC1(CCCC=CCCCOC(=O)N3CC[C@@](C(=O)N[C@@H](Cc4ccsc4)C(=O)N[C@@H](Cc4csc5ccccc45)C(=O)N[C@@H](Cc4c[nH]cn4)C(N)=O)(C3)NC(=O)[C@H](CCC(N)=O)NC(=O)[C@H](Cc3ccccc3)NC(=O)[C@H](C)NC(=O)[C@H](C)NC(=O)[C@H](CC(=O)O)NC(=O)[C@H](CC(=O)O)NC1=O)NC(=O)[C@H](CC(C)(C)C)NC(=O)[C@H](CC(=O)O)NC2=O (stereo partly drawn) [I-2402, PropynOH-PL3-Asp-Npg-B5-Asp-Asp-Ala-Ala-Phe-Gln-PyrS2-3Thi-BztA-His-NH2] | 16 | > 20000 | – |
| CCCC[C@@H]1NC(=O)[C@H](CN(CC(=O)O)CC(F)(F)F)NC(=O)[C@H](CC(=O)O)NC(=O)C2(CCCC=CCCCOC(=O)N3CC[C@@](C(=O)N[C@@H](Cc4ccccc4Cl)C(=O)N[C@@H](Cc4csc5ccccc45)C(=O)N[C@@H](CCC(N)=O)C(N)=O)(C3)NC(=O)[C@H]([C@@H](C)O)NC(=O)[C@H](Cc3ccccc3)NC(=O)CNC1=O)CCCC=CC[C@]1(CCCN1C(C)=O)C(=O)N[C@@H](CC(=O)O)C(=O)N[C@@H](CC(C)(C)C)C(=O)N2 (stereo partly drawn) [I-1695, Ac-PL3-Asp-Npg-B5-Asp-TfeGA-nLeu-Gly-Phe-Thr-PyrS2-2C1F-BztA-Gln-NH2] | 93 | > 20000 | – |
| CCNC(=O)[C@H](CCC(N)=O)NC(=O)[C@H](Cc1csc2ccccc12)NC(=O)[C@H](Cc1ccccc1Cl)NC(=O)[C@]12CCN(C1)C(=O)OCCCC=CCCCC1(CCCC=CC[C@]3(CCCN3C(C)=O)C(=O)N[C@@H](CC(=O)O)C(=O)N[C@@H](CC(C)(C)C)C(=O)N1)C(=O)N[C@@H](CC(=O)O)C(=O)N[C@@H](Cc1cccc(C(=O)O)c1)C(=O)N[C@@H](C)C(=O)N[C@@H](C)C(=O)N[C@@H](Cc1ccccc1)C(=O)N[C@@H](CC(C)C)C(=O)N2 (stereo partly drawn) [I-1672, Ac-PL3-Asp-Npg-B5-Asp-3COOHF-Ala-Ala-Phe-Leu-PyrS2-2C1F-BztA-Gln-NHEt] | 40 | 7100 | – |
| CC(=O)N1CCC[C@]12CC=CCC1(CC=CCCCCCOC(=O)N3CC[C@](C(=O)N[C@@H](Cc4ccsc4)C(=O)N[C@@H](Cc4csc5ccccc45)C(=O)N[C@@H](CCC(N)=O)C(N)=O)(C3)NC(=O)[C@H](CC(C)C)NC(=O)[C@H](Cc3ccccc3)NC(=O)[C@H](C)NC(=O)[C@H](C)NC(=O)[C@H](CC(=O)O)NC(=O)[C@H](CC(=O)O)NC1=O)NC(=O)[C@H](CC(C)(C)C)NC(=O)[C@H](CC(=O)O)NC2=O (single isomer, unassigned) [I-2158, Ac-PL3-Asp-Npg-B3-Asp-Asp-Ala-Ala-Phe-Leu-PyrS4-3Thi-BztA-Gln-NH2] | 213 | – | > 20000 |
| CC(=O)N1CCC[C@]12CC=CCCCC1(CCCC=CCCCOC(=O)N3CC[C@@](C(=O)N[C@@H](Cc4ccsc4)C(=O)N[C@@H](Cc4csc5ccccc45)C(=O)N[C@@H](CCC(N)=O)C(N)=O)(C3)NC(=O)[C@H](CC(C)C)NC(=O)[C@H](Cc3ccccc3)NC(=O)[C@H](C)NC(=O)[C@H](C)NC(=O)[C@H](CC(N)=O)NC(=O)[C@H](CC(N)=O)NC1=O)NC(=O)[C@H](CC(C)(C)C)NC(=O)[C@H](CC(=O)O)NC2=O (stereo partly drawn) [I-1557, Ac-PL3-Asp-Npg-B5-Asn-Asn-Ala-Ala-Phe-Leu-PyrS2-3Thi-BztA-Gln-NH2] | 342 | > 20000 | – |

Now those with a lower IC50 [1], led by results:

| IC50 [1] [nM] | IC50 ([2]; absolute IC50) [nM] | IC50 [2] [nM] | SMILES |
| --- | --- | --- | --- |
| 14 | 6800 | – | CC(=O)N1CCC[C@]12CC=CCCCC1(CCCC=CCCCOC(=O)N3CC[C@@](C(=O)N[C@@H](Cc4ccsc4)C(=O)N[C@@H](Cc4csc5ccccc45)C(=O)N[C@@H](CCC(N)=O)C(N)=O)(C3)NC(=O)[C@H](CC(C)C)NC(=O)[C@H](Cc3ccccc3)NC(=O)[C@H](C)NC(=O)[C@H](C)NC(=O)[C@H](CN(CC(=O)O)CC(F)(F)F)NC(=O)[C@H](CC(=O)O)NC1=O)NC(=O)[C@H](CCC(C)(C)C)NC(=O)[C@H](CC(=O)O)NC2=O (stereo partly drawn) [I-1772, Ac-PL3-Asp-Npa-B5-Asp-TfeGA-Ala-Ala-Phe-Leu-PyrS2-3Thi-BztA-Gln-NH2] |
| 13 | 4500 | – | CC(=O)N1CCC[C@]12CC=CCCCC1(CCCC=CCCCOC(=O)N3CC[C@@](C(=O)N[C@@H](Cc4ccccc4C(F)(F)F)C(=O)N[C@@H](Cc4csc5ccccc45)C(=O)N[C@@H](CCC(=O)N(C)C)C(N)=O)(C3)NC(=O)[C@H](CCC(=O)N(C)C)NC(=O)[C@H](Cc3ccccc3)NC(=O)[C@H](C)NC(=O)[C@H](C)NC(=O)[C@H](Cc3cccc(C(=O)O)c3)NC(=O)[C@H](CC(=O)O)NC1=O)NC(=O)[C@H](CC(C)(C)C)NC(=O)[C@H](CC(=O)O)NC2=O (stereo partly drawn) [I-2536, Ac-PL3-Asp-Npg-B5-Asp-3COOHF-Ala-Ala-Phe-Me2Gln-PyrS2-2F3MeF-BztA-Me2Gln-NH2] |
| 11 | > 20000 | – | CC(=O)N1CCC[C@]12CC=CCCCC1(CCCC=CCCCOC(=O)N3CC[C@@](C(=O)N[C@@H](Cc4ccsc4)C(=O)N[C@@H](Cc4csc5ccccc45)C(=O)N[C@@H](CCC(N)=O)C(N)=O)(C3)NC(=O)[C@H](CC(N)=O)NC(=O)[C@H](Cc3ccccc3)NC(=O)[C@H](C)NC(=O)[C@H](C)NC(=O)[C@H](CN(C)CC(=O)O)NC(=O)[C@H](CC(=O)O)NC1=O)NC(=O)[C@H](CC(C)(C)C)NC(=O)[C@H](CC(=O)O)NC2=O (stereo partly drawn) [I-1637, Ac-PL3-Asp-Npg-B5-Asp-[Me]GA-Ala-Ala-Phe-Asn-PyrS2-3Thi-BztA-Gln-NH2] |
| 9 | 15900 | – | CC(=O)N1CCC[C@]12CC=CCCCC1(CCCC=CCCCCCC[C@@](C)(C(=O)N[C@@H](Cc3ccccc3Cl)C(=O)N[C@@H](Cc3csc4ccccc34)C(=O)N[C@@H](CCC(N)=O)C(N)=O)NC(=O)[C@H](CC(N)=O)NC(=O)[C@H](Cc3ccccc3)NC(=O)[C@H](C)NC(=O)[C@H](C)NC(=O)[C@H](CC(=O)O)NC(=O)[C@H](CC(=O)O)NC1=O)NC(=O)[C@H](CC(C)(C)C)NC(=O)[C@H](CC(=O)O)NC2=O (stereo partly drawn) [I-1394, Ac-PL3-Asp-Npg-B5-Asp-Asp-Ala-Ala-Phe-Asn-S8-2C1F-BztA-Gln-NH2] |
| 6 | 29100 | – | CCCC[C@@H]1NC(=O)[C@H](CC(=O)O)NC(=O)[C@]2(CC=CCCCC3(CCCC=CCCCOC(=O)N4CC[C@@](C(=O)N[C@@H](Cc5ccccc5)C(=O)N[C@@H](Cc5csc6ccccc56)C(=O)N[C@@H](CCC(N)=O)C(N)=O)(C4)NC(=O)[C@H](CC(C)C)NC(=O)[C@H](Cc4ccccc4)NC(=O)[C@H](C)NC(=O)[C@H](C)NC(=O)[C@H](CC(=O)O)NC(=O)[C@H](CC(=O)O)NC3=O)NC1=O)CCCN2C(C)=O (stereo partly drawn) [I-1403, Ac-PL3-Asp-nLeu-B5-Asp-Asp-Ala-Ala-Phe-Leu-PyrS2-Phe-BztA-Gln-NH2] |
| 6 | 5000 | – | CC(=O)N1CCC[C@]12CC=CCCCC1(CCCC=CCCCOC(=O)N3CC[C@@](C(=O)N[C@@H](Cc4ccsc4)C(=O)N[C@@H](Cc4csc5ccccc45)C(=O)N[C@@H](CCC(N)=O)C(N)=O)(C3)NC(=O)[C@H](CC(C)C)NC(=O)[C@H](Cc3ccccc3)NC(=O)[C@H](C)NC(=O)[C@H](C)NC(=O)[C@H](Cc3cccc(C(=O)O)c3)NC(=O)[C@H](CC(=O)O)NC1=O)NC(=O)[C@H](CC(C)C)NC(=O)[C@H](CC(=O)O)NC2=O (stereo partly drawn) [I-1406, Ac-PL3-Asp-Leu-B5-Asp-3COOHF-Ala-Ala-Phe-Leu-PyrS2-3Thi-BztA-Gln-NH2] |
